Results from US20240018122A1, “PYRIDAZINYL AMINO DERIVATIVES AS ALK5 INHIBITORS” (CHIESI FARMACEUTICI S.P.A., priority 2020, published 2024).
Read-outs that look alike come from different tables or passages of the source.

Target: human ALK5 (Homo sapiens (Human), UniProt P36897)
Assay: ADP-GLO Kinases assay, inhibitory activity on ALK5
Format: biochemical
Experimental: The enzymatic activity of compounds of the present invention was monitored measuring the formation of ADP using the ADP-GLO Kinases assay. Following the incubation of the purified enzyme, a substrate and ATP, the produced ADP was converted into ATP, which in turn was converted into light by Ultra-Glo Luciferase. The luminescent signal positively correlated with ADP amount and kinase activity. […] The assay was performed in 384-well format and was validated using a selection of reference compounds that was tested in 11 point concentration-response curve.

[1] = purified recombinant human ALK5 2.6 nM, TGFβ1 peptide substrate, 25° C, 150 min incubation, ADP-Glo detection, read-out: ALK5 IC50

human ALK5, sequence (P36897 80-503 limits assumed): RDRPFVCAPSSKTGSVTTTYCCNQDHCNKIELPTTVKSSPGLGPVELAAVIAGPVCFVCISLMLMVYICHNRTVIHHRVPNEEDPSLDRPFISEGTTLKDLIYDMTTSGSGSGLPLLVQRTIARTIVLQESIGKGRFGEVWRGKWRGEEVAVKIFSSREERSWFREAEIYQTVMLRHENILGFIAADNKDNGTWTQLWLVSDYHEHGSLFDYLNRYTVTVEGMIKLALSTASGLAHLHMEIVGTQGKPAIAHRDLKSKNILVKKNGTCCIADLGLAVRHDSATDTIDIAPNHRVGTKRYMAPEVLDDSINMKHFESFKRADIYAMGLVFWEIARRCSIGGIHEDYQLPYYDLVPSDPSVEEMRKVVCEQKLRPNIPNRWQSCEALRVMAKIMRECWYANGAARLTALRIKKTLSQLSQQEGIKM

CN1CCN(C(=O)c2cc3c(Nc4cnnc(-c5cc(Cl)ccc5F)c4)ccnc3[nH]2)CC1 [Example 38, 6-(5-Chloro-2-Fluorophenyl)-N-[2-(4-Methylpiperazine-1-Carbonyl)-1H-Pyrrolo[2,3-13]Pyridin-4-Yl]Pyridazin-4-Amine]
IC50 [1]: 1 to 5 nM

CN1CCN(C(=O)COc2ccc3c(Nc4cnnc(-c5cc(Cl)ccc5F)c4)ccnc3c2)CC1 [Example 39, 2-[(4-{[6-(5-Chloro-2-Fluorophenyl)Pyridazin-4-Yl]Amino}Quinolin-7-Yl)Oxy]-1-(4-Methylpiperazin-1-Yl)Ethan-1-One]
IC50 [1]: 1 to 5 nM

Fc1ccc(Cl)cc1-c1cc(Nc2ccnc3cc(OCCN4CCN(CC(F)(F)F)CC4)ccc23)cnn1 [Example 41, N-[6-(5-Chloro-2-Fluorophenyl)Pyridazin-4-Yl]-7-{2-[4-(2,2,2-Trifluoroethyl)Piperazin-1-Yl]Ethoxy}Quinolin-4-Amine]
IC50 [1]: < 1 nM

CN(CCOc1ccc2c(Nc3cnnc(-c4cc(Cl)ccc4F)c3)ccnc2c1)C1COC1 [Example 42, N-[6-(5-Chloro-2-Fluorophenyl)Pyridazin-4-Yl]-7-{2-[Methyl(Oxetan-3-Yl)Amino]Ethoxy}Quinolin-4-Amine]
IC50 [1]: < 1 nM

CC(=O)N1CCCN(CCC(=O)Nc2cc(Nc3cnnc(-c4cc(Cl)ccc4F)c3)ccn2)C1 [Example 43, 3-(3-Acetyl-1,3-Diazinan-1-Yl)-N-(4-{[6-(5-Chloro-2-Fluorophenyl)Pyridazin-4-Yl]Amino}Pyridin-2-Yl)Propanamide]
IC50 [1]: 1 to 5 nM

CS(=O)(=O)N1CCCN(CCC(=O)Nc2cc(Nc3cnnc(-c4cc(Cl)ccc4F)c3)ccn2)C1 [Example 44, N-(4-{[6-(5-Chloro-2-Fluorophenyl)Pyridazin-4-Yl]Amino}Pyridin-2-Yl)-3-(3-Methanesulfonyl-1,3-Diazinan-1-Yl)Propanamide]
IC50 [1]: < 1 nM

CN1CCN(CCN(C)C(=O)Oc2ccc3c(Nc4cnnc(-c5cc(Cl)ccc5F)c4)ccnc3c2)CC1 [Example 45, 4-{[6-(5-Chloro-2-Fluorophenyl)Pyridazin-4-Yl]Amino}Quinolin-7-Yl N-Methyl-N-[2-(4-Methylpiperazin-1-Yl)Ethyl]Carbamate]
IC50: 1 to 5 nM

O=C(CCN1CCN(CC(F)(F)F)CC1)Nc1cc(Nc2cnnc(-c3cc(Cl)ccc3F)c2)ccn1 [Example 47, N-(4-{[6-(5-Chloro-2-Fluorophenyl)Pyridazin-4-Yl]Amino}Pyridin-2-Yl)-3-[4-(2,2,2-Trifluoroethyl)Piperazin-1-Yl]Propanamide]
IC50 [1]: 1 to 5 nM

Cc1nnc(-c2cc(Cl)ccc2F)cc1Nc1ccnc2cc(OCCN3CCN(C)CC3)ccc12 [Example 48, N-[6-(5-Chloro-2-Fluorophenyl)-3-Methylpyridazin-4-Yl]-7-[2-(4-Methylpiperazin-1-Yl)Ethoxy]Quinolin-4-Amine]
IC50 [1]: < 1 nM

Cc1nnc(-c2cc(Cl)ccc2F)cc1Nc1ccnc2[nH]c(C(=O)NCCN3CCN(C)CC3)cc12 [Example 49, 4-{[6-(5-Chloro-2-Fluorophenyl)-3-Methylpyridazin-4-Yl]Amino}-N-[2-(4-Methylpiperazin-1-Yl)Ethyl]-M-Pyrrolo[2,3-b]Pyridine-2-Carboxamide]
IC50 [1]: < 1 nM

Cc1nnc(-c2cc(Cl)ccc2F)cc1Nc1ccnc2[nH]c(C(=O)N(C)CCN3CCN(C)CC3)cc12 [Example 50, 4-{[6-(5-Chloro-2-Fluorophenyl)-3-Methylpyridazin-4-Yl]Amino}-N-Methyl-N-[2-(4-Methylpiperazin-1-Yl)Ethyl]-1H-Pyrrolo[2,3-b]Pyridine-2-Carboxamide]
IC50 [1]: < 1 nM

CN1CCC(CCN(C)C(=O)Oc2ccc3c(Nc4cnnc(-c5cc(Cl)ccc5F)c4)ccnc3c2)CC1 [Example 51, 4-{[6-(5-Chloro-2-Fluorophenyl)Pyridazin-4-Yl]Amino}Quinolin-7-Yl N-Methyl-N-[2-(1-Methylpiperidin-4-Yl)Ethyl]Carbamate]
IC50: 1 to 5 nM

CN1CCCN(CCCOc2ccc3c(Nc4cnnc(-c5cc(Cl)ccc5F)c4)ccnc3c2)C1 [Example 52, N-[6-(5-Chloro-2-Fluorophenyl)Pyridazin-4-Yl]-7-[3-(3-Methyl-1,3-Diazinan-1-Yl)Propoxy]Quinolin-4-Amine]
IC50 [1]: < 1 nM

CS(=O)(=O)CCN1CCN(C(=O)Oc2ccc3c(Nc4cnnc(-c5cc(Cl)ccc5F)c4)ccnc3c2)CC1 [Example 53, 4-{[6-(5-Chloro-2-Fluorophenyl)Pyridazin-4-Yl]Amino}Quinolin-7-Yl 4-(2-Methanesulfonylethyl)Piperazine-1-Carboxylate]
IC50: 1 to 5 nM

CN1CC[C@@H](OC(=O)c2ccc3c(Nc4cnnc(-c5cc(Cl)ccc5F)c4)ccnc3c2)C1 [Example 54, (3R)-1-Methylpyrrolidin-3-Yl 4-{[6-(5-Chloro-2-Fluorophenyl)Pyridazin-4-Yl]Amino}Quinoline-7-Carboxylate]
IC50 [1]: 1 to 5 nM

CN1C[C@@H]2CN(CCOc3ccc4c(Nc5cnnc(-c6cc(Cl)ccc6F)c5)ccnc4c3)C[C@@H]2C1 [Example 55, Cis N-[6-(5-Chloro-2-Fluorophenyl)Pyridazin-4-Yl]-7-(2-{5-Methyl-Octahydropyrrolo[3,4-c]Pyrrol-2-Yl}Ethoxy)Quinolin-4-Amine]
IC50 [1]: < 1 nM

CC(=O)N1CCCN(CCOc2ccc3c(Nc4cnnc(-c5cc(Cl)ccc5F)c4)ccnc3c2)C1 [Example 56, 1-(3-{2-[(4-{[6-(5-Chloro-2-Fluorophenyl)Pyridazin-4-Yl]Amino}Quinolin-7-Yl)Oxy]Ethyl}-1,3-Diazinan-1-Yl)Ethan-1-One]
IC50 [1]: < 1 nM

O=C(Oc1ccc2c(Nc3cnnc(-c4cc(Cl)ccc4F)c3)ccnc2c1)N1CCN(CCO)CC1 [Example 57, 4-{[6-(5-Chloro-2-Fluorophenyl)Pyridazin-4-Yl]Amino}Quinolin-7-Yl 4-(2-Hydroxyethyl)Piperazine-1-Carboxylate]
IC50: 1 to 5 nM

CN1CC[C@H](OC(=O)c2ccc3c(Nc4cnnc(-c5cc(Cl)ccc5F)c4)ccnc3c2)C1 [Example 58, (3S)-1-Methylpyrrolidin-3-Yl 4-{[6-(5-Chloro-2-Fluorophenyl)Pyridazin-4-Yl]Amino}Quinoline-7-Carboxylate]
IC50 [1]: 1 to 5 nM

O=C(CCN1CCCN(CC(F)(F)F)C1)Nc1cc(Nc2cnnc(-c3cc(Cl)ccc3F)c2)ccn1 [Example 59]
IC50 [1]: 1 to 5 nM

COC(=O)CCN1CCN(CCOc2ccc3c(Nc4cnnc(-c5cc(Cl)ccc5F)c4)ccnc3c2)CC1 [Example 60, Methyl 3-(4-{2-[(4-{[6-(5-Chloro-2-Fluorophenyl)Pyridazin-4-Yl]Amino}Quinolin-7-Yl)Oxy]Ethyl}Piperazin-1-Yl)Propanoate]
IC50 [1]: < 1 nM

CN(C)CCN1CCN(C(=O)Oc2ccc3c(Nc4cnnc(-c5cc(Cl)ccc5F)c4)ccnc3c2)CC1 [Example 61, 4-{[6-(5-Chloro-2-Fluorophenyl)Pyridazin-4-Yl]Amino}Quinolin-7-Yl 4-[2-(Dimethylamino)Ethyl]Piperazine-1-Carboxylate]
IC50 [1]: < 1 nM

CN1CCCN(CCOc2ccc3c(Nc4cnnc(-c5cc(Cl)ccc5F)c4)ccnc3c2)C1 [Example 62, N-[6-(5-Chloro-2-Fluorophenyl)Pyridazin-4-Yl]-7-[2-(3-Methyl-1,3-Diazinan-1-Yl)Ethoxy]Quinolin-4-Amine]
IC50 [1]: < 1 nM

CNC(=O)CCN1CCN(CCOc2ccc3c(Nc4cnnc(-c5cc(Cl)ccc5F)c4)ccnc3c2)CC1 [Example 63, 3-(4-{2-[(4-{[6-(5-Chloro-2-Fluorophenyl)Pyridazin-4-Yl]Amino}Quinolin-7-Yl)Oxy]Ethyl}Piperazin-1-Yl)-N-Methylpropanamide]
IC50 [1]: < 1 nM

CN1CCC(CCN2CCN(C(=O)Oc3ccc4c(Nc5cnnc(-c6cc(Cl)ccc6F)c5)ccnc4c3)CC2)CC1 [Example 64, 4-{[6-(5-Chloro-2-Fluorophenyl)Pyridazin-4-Yl]Amino}Quinolin-7-Yl 4-[2-(1-Methylpiperidin-4-Yl)Ethyl]Piperazine-1-Carboxylate]
IC50 [1]: < 1 nM

Cc1nnc(-c2cc(Cl)ccc2F)cc1Nc1ccnc(NC(=O)CCCN2CCN(C)CC2)c1 [Example 65, N-(4-{[6-(5-Chloro-2-Fluorophenyl)-3-Methylpyridazin-4-Yl]Amino}Pyridin-2-Yl)-4-(4-Methylpiperazin-1-Yl)Butanamide]
IC50 [1]: < 1 nM

NCCN1CCN(CCOc2ccc3c(Nc4cnnc(-c5cc(Cl)ccc5F)c4)ccnc3c2)CC1 [Example 66, 7-{2-[4-(2-Aminoethyl)Piperazin-1-Yl]Ethoxy}-N-[6-(5-Chloro-2-Fluorophenyl)Pyridazin-4-Yl]Quinolin-4-Amine]
IC50 [1]: < 1 nM

CS(=O)(=O)NCCN1CCN(CCOc2ccc3c(Nc4cnnc(-c5cc(Cl)ccc5F)c4)ccnc3c2)CC1 [Example 67, N-[2-(4-{2-[(4-{[6-(5-Chloro-2-Fluorophenyl)Pyridazin-4-Yl]Amino}Quinolin-7-Yl)Oxy]Ethyl}Piperazin-1-Yl)Ethyl]Methanesulfonamide]
IC50 [1]: < 1 nM

CN(C)CCN1CCN(CCOc2ccc3c(Nc4cnnc(-c5cc(Cl)ccc5F)c4)ccnc3c2)CC1 [Example 68, N-[6-(5-Chloro-2-Fluorophenyl)Pyridazin-4-Yl]-7-[2-[4-[2-(Dim Ethylamino)Ethyl]Piperazin-1-Yl]Ethoxy]Quinolin-4-Amine]
IC50 [1]: < 1 nM

CC(=O)NCCN1CCN(CCOc2ccc3c(Nc4cnnc(-c5cc(Cl)ccc5F)c4)ccnc3c2)CC1 [Example 69, N-[2-(4-{2-[(4-{[6-(5-Chloro-2-Fluorophenyl)Pyridazin-4-Yl]Amino}Quinolin-7-Yl)Oxy]Ethyl}Piperazin-1-Yl)Ethyl]Acetamide]
IC50 [1]: < 1 nM

CN1CCN(CCC2CCN(C(=O)Oc3ccc4c(Nc5cnnc(-c6cc(Cl)ccc6F)c5)ccnc4c3)CC2)CC1 [Example 70, 4-{[6-(5-Chloro-2-Fluorophenyl)Pyridazin-4-Yl]Amino}Quinolin-7-Yl 4-[2-(4-Methylpiperazin-1-Yl)Ethyl]Piperidine-1-Carboxylate]
IC50: 1 to 5 nM
